Assays:
[1] = organoleptic (sensory) test of sweetening potency; conditions: for Sweetening potency: value compared with a 4% sucrose aqueous solution
From the text: For example, a sweetening potency of N-[N-[3-(3,4-dihydroxyphenyl)-3-methylbutyl]-L-α-aspartyl]-L-phenylalanine 1-methyl ester was approximately 50,000 times (relative to sugar), and a sweetening potency of N-[N-[3-(3,4,5-trihydroxyphenyl)propyl]-L-α-aspartyl]-L-phenylalanine 1-methyl ester was approximately 25,000 times (relative to sugar).
The structures and the results of the sensory test on some aspartyl dipeptide ester derivatives (represented by the following general formula (1)) formed are shown in Table 1.

[2] = times that of sucrose/sugar; reported in WO 94/11391 (b9: compared with 2, 5 and 10% sucrose solutions); cited from earlier work

COC(=O)[C@H](Cc1ccccc1)NC(=O)[C@H](CC(=O)O)NCCCc1ccc(O)cc1O [Compound 1, N-[N-[3-(2,4-dihydroxyphenyl)propyl]-L-α-aspartyl]-L-phenylalanine 1-methyl Ester]
Sweetening potency (relative to sugar) [1]: 10,000 times
Sweetening potency [1]: 10000

COC(=O)[C@H](Cc1ccccc1)NC(=O)[C@H](CC(=O)O)NCCCc1cc(O)c(O)c(O)c1 [Compound 4, N-[N-[3-(3,4,5-trihydroxyphenyl)propyl]-L-α-aspartyl]-L-phenylalanine 1-methyl Ester]
Sweetening potency (relative to sugar) ([1]; listed as Example 4): 25,000 times
Sweetening potency (relative to sugar) ([1]; listed as N-[N-[3-(3,4,5-trihydroxyphenyl)propyl]-L-α-aspartyl]-L-phenylalanine 1-methyl e): approximately 25,000 times
Sweetening potency [1]: 25000

COC(=O)[C@H](Cc1ccccc1)NC(=O)[C@H](CC(=O)O)NCCCc1ccc(O)c(O)c1 [Compound 2, N-[N-[3-(3,4-dihydroxyphenyl)propyl]-L-α-aspartyl]-L-phenylalanine 1-methyl Ester]
Sweetening potency (relative to sugar) [1]: 15,000 times
Sweetening potency [1]: 15000

COC(=O)[C@H](Cc1ccccc1)NC(=O)[C@H](CC(=O)O)NCCC(C)(C)c1ccc(O)c(O)c1 [Compound 5, N-[N-[3-(3,4-dihydroxyphenyl)-3-methylbutyl]-L-α-aspartyl]-L-phenylalanine 1-methyl Ester]
Sweetening potency (relative to sugar) ([1]; listed as Example 5): 50,000 times
Sweetening potency (relative to sugar) ([1]; listed as N-[N-[3-(3,4-dihydroxyphenyl)-3-methylbutyl]-L-α-aspartyl]-L-phenylalanine 1-met): approximately 50,000 times
Sweetening potency [1]: 50000

COC(=O)[C@H](Cc1ccccc1)NC(=O)[C@H](CC(=O)O)NCCC(C)(C)C [N-[N-(3,3-dimethylbutyl)-L-α-aspartyl]-L-phenylalanine 1-methyl ester]
sweetening potency (degree of sweetness) [2]: 10,000 times

COC(=O)[C@H](Cc1ccccc1)NC(=O)[C@H](CC(=O)O)NCCCc1ccc(O)c(OC)c1 [N-[N-[3-(3-methoxy-4-hydroxyphenyl)propyl]-L-α-aspartyl]-L-phenylalanine 1-methyl ester]
sweetening potency (degree of sweetness) [2]: 2,500 times

COC(=O)[C@H](Cc1ccccc1)NC(=O)[C@H](CC(=O)O)NCCC(C)c1ccccc1 (mixture of isomers) [N-[N-[(RS)-3-phenylbutyl]-L-α-aspartyl]-L-phenylalanine 1-methyl ester]
sweetening potency (degree of sweetness) [2]: 1,200 times

COC(=O)[C@H](Cc1ccccc1)NC(=O)[C@H](CC(=O)O)NCCCc1ccccc1 [N-[N-(3-phenylpropyl)-L-α-aspartyl]-L-phenylalanine 1-methyl ester]
sweetening potency (degree of sweetness) [2]: 1,500 times

COC(=O)[C@H](Cc1ccccc1)NC(=O)[C@H](CC(=O)O)NCCCc1ccc(O)c(O)c1O [Compound 3, N-[N-[3-(2,3,4-trihydroxyphenyl)propyl]-L-α-aspartyl]-L-phenylalanine 1-methyl Ester]
Sweetening potency (relative to sugar) [1]: 10,000 times
Sweetening potency [1]: 10000
